Reference: patent US20220348970A1, “METHODS AND COMPOSITIONS FOR 3-HYDROXYPROPIONATE PRODUCTION” (The Regents of the University of California, priority 2017, published 2022)

Tests used:
[1] = target: T1, OAADC A0A0D6NFJ6_9PROT, SEQ ID NO: 166 (Acetobacter indonesiensis, UniProt A0A6N3T5V0); assay: OAADC kinetics of A0A0D6NFJ6_9PROT on oxaloacetate; format: biochemical; settings: pH 7.2, 21° C.
T1 sequence (A0A6N3T5V0 with tags, fused parts or gaps): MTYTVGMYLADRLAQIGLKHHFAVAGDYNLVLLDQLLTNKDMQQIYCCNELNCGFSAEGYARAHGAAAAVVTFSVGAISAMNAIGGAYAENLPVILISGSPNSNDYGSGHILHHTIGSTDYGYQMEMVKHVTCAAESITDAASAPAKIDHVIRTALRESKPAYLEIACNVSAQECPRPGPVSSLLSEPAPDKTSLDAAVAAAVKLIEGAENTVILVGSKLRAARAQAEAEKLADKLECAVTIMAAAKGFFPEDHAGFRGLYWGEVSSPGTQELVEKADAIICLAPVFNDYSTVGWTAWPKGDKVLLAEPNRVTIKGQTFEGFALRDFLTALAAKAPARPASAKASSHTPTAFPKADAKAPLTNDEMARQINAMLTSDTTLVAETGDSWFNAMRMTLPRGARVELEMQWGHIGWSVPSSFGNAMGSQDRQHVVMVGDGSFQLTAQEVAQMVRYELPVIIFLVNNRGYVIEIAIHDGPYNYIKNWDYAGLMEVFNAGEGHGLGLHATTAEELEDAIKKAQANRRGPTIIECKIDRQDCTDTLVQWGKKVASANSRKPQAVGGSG
Protocol: All substrates were dissolved in MilliQ H2O and the pH was adjusted to 7.2 as necessary. Activity for oxaloacetate, pyruvate, and 2-ketoisovalerate was measured at a 1 mM substrate concentration. The assay was performed in a 96-well half-area plate. Each reaction contained reaction buffer (100 mM HEPES, 100 mM NaCl, 10% glycerol, pH 7.2), ADH (Sigma-Aldrich, A7011, 100 U/mL for pyruvate, 600 U/mL for oxaloacetate, and 600 U/mL for 2-ketoisovalerate), and a final concentration of 0.5 mM NADPH, 0.1 mM TPP, and 1 mM MgSO4. A range of substrate concentrations (0.1 mM-5 mM) were uSEQ to perform steady-state kinetics measurement over a period of one hour. Absorbance readings were taken at one minute intervals at 340 nm at 21° C. for 60 minutes using the Synergy H1 spectrophotometer (Biotek). Kinetic parameters (ka and Ks1) were determined by fitting initial velocity versus substrate concentration data to the Michaelis-Menten equation.
A second round of genome mining was conducted as described in Example 1, except using the 4COK sequence as the input. Genes encoding candidate OAADCs were synthesized and expressed in E. coli for further characterization. OAADC activity was assayed as described in Example 1.

[2] = target: T2, pyruvate decarboxylase from Gluconacetobacter diazotrophicus (4COK), SEQ ID NO: 1 (Gluconacetobacter diazotrophicus, UniProt A9H275); assay: Steady-state kinetics of 4COK decarboxylase on pyruvate and oxaloacetate (ADH/NADPH coupled, 340 nm); format: biochemical; settings: pH 7.2, 21° C., 0.1 mM-5 mM substrate
T2 construct: likely strain PAl 5 (ATCC 49037 / DSM 5601)
T2 sequence (A9H275 1-558): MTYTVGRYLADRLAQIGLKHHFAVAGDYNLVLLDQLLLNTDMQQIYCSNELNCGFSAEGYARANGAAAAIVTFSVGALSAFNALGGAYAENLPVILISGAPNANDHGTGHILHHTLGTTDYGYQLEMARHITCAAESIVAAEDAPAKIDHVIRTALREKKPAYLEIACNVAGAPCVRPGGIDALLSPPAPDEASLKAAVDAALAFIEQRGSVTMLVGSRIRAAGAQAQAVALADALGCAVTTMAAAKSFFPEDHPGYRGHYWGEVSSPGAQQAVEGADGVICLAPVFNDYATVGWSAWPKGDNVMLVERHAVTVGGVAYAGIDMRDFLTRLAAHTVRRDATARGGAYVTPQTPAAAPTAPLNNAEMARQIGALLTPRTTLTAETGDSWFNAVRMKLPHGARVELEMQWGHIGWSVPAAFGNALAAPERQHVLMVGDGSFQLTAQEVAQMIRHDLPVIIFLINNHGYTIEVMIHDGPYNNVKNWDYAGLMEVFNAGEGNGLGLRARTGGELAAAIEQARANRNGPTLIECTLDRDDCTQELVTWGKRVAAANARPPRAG
Protocol: Overnight cultures of BLR cells suspended in a 2 mL volume were transformed with a pet29b+ plasmid (encoding polypeptides of interest with a C-terminal His-tag) and grown in Terrific Broth with 50 μg/ml kanamycin. Cultures were diluted 1:1.000 in 500 ml of Terrific Broth with 1 mM MgSO4, 1% glucose and 50 μg/ml antibiotic and then grown at 37° C. for 24 hours. Cultures were pelleted down at 4,700 RPM for 10 minutes and resuspended in auto-induction media (LB broth, 1 mM MgSO4, 0.1 mM TPP, 1×NPS and 1×5052) for induction at 18° C. for 20 hours. […] Protein concentrations were determined using a Synergy H1 spectrophotometer (Biotek) by measuring absorbance at 280 nm using calculated extinction coefficients.
All substrates were dissolved in MilliQ H2O and the pH was adjusted to 7.2 as necessary. Activity for oxaloacetate, pyruvate, and 2-ketoisovalerate was measured at a 1 mM substrate concentration. […] Absorbance readings were taken at one minute intervals at 340 nm at 21° C. for 60 minutes using the Synergy H1 spectrophotometer (Biotek). Kinetic parameters (ka and Ks1) were determined by fitting initial velocity versus substrate concentration data to the Michaelis-Menten equation. […]

Km [1]: > 20 mM | Km [2]: > 20 mM
SMILES: O=C(O)CC(=O)C(=O)O [Oxaloacetate]
